Reference: patent US10047036B2, “Method for the synthesis of hydroxy-triglycerides and uses thereof for the prevention and treatment of diseases” (UNIVERSITAT DE LES ILLES BALEARS, priority 2014, dated 2018)

What was measured:
[1] = tested on: PC3 (prostate); experiment: growth inhibition of human tumour cells, 72 h incubation; format: cell-based; details: 72 hours of incubation
Experimental: (§1) On the one hand, human cells of different types of cancer were used. The cells were incubated at 37° C. and 5% of CO2 in air, in culture medium RPMI1640 or DMEM with bovine foetal serum (10%) and other supplements and in the presence or absence of the triglycerides of the present invention at different concentrations during 72 hours. It was possible to observe that the hydroxy-triglycerides of the invention have a high efficacy against the growth of human tumour cells, but not against the growth of normal non-tumour cells (human fibroblasts, MRC5).

[2] = tested on: HT-29 (colon); experiment: as above; format: cell-based; details: 72 hours of incubation
Experimental: as §1

[3] = tested on: SF767 (glioma); experiment: as above; format: cell-based; details: 72 hours of incubation
Experimental: as §1

[4] = tested on: A549 (lung); experiment: as above; format: cell-based; details: 72 hours of incubation
Experimental: as §1

[5] = tested on: SH-SY5Y (neuroblastoma); experiment: as above; format: cell-based; details: 72 hours of incubation
Experimental: as §1

[6] = tested on: Jurkat (lymphoblastic leukaemia); experiment: as above; format: cell-based; details: 72 hours of incubation
Experimental: as §1

[7] = tested on: HeLa (cervix); experiment: as above; format: cell-based; details: 72 hours of incubation
Experimental: as §1

[8] = tested on: MIA-PaCa-2 (pancreas); experiment: as above; format: cell-based; details: 72 hours of incubation
Experimental: as §1

[9] = tested on: MDA-MB231 (breast); experiment: as above; format: cell-based; details: 72 hours of incubation
Experimental: as §1

[10] = tested on: BXPC3 (pancreas); experiment: as above; format: cell-based; details: 72 hours of incubation
Experimental: as §1

[11] = tested on: U87M (glioma); experiment: as above; format: cell-based; details: 72 hours of incubation
Experimental: as §1

[12] = tested on: HepG2 (liver carcinoma); experiment: as above; format: cell-based; details: 72 hours of incubation
Experimental: as §1

[13] = tested on: NCI1975D (lung); experiment: as above; format: cell-based; details: 72 hours of incubation
Experimental: as §1

[14] = tested on: HL-60 (myeloblastic leukaemia); experiment: as above; format: cell-based; details: 72 hours of incubation
Experimental: as §1

[15] = tested on: systolic blood pressure; experiment: systolic blood pressure in spontaneously hypertensive rats; format: in vivo; details: SHR rats; for Δ SP, change in systolic blood pressure: 14 days, 600 mg/kg every 12 hours, basal 216 mmHg
Source text: Metabolic and cardiovascular pathologies are closely related. The overfeeding which characterises our society not only gives rise to problems of obesity and excess weight. It is also linked to the appearance of diabetes, dyslipidaemia, hypertension, strokes, arteriosclerosis, ictus, etc. All of these pathologies increase the risk of premature death and can even cause death. In this sense, certain natural oils show a certain efficacy against this type of pathologies, but their power is limited. In contrast, the molecules of the invention have an important effect against the development of this type of pathologies. To be able to study the effects of the compounds of the invention for the prevention and treatment of metabolic and cardiovascular pathologies, hypertensive rats were used (SHR strain, spontaneously hypertensive rats). These rats present obesity, high blood pressure, dyslipidaemia (hypercholesterolemia and hypertriglyceridemia), diabetes, metabolic syndrome and other related health problems. Hypertensive rats of the SHR strain (spontaneously hypertensive rats) with an approximate weight of 300 grams were treated with TGM1 during 9 days (400 mg/kg, every 12 h, p.o.). Systolic pressure was measured before starting the treatment (basal) and 9 days later. In these animals with a metabolic/cardiovascular pathology, this treatment with TGM1 produced drops in blood pressure of approximately 25 mmHg, while the 14-day treatments with 600 mg/kg of TGM1 induced even greater drops in systolic blood pressure of up to 37 mmHg for TGM1 and up to 52 mmHg for TGM6 (FIG. 4 and Table 3). […] [table]

[16] = tested on: Drosophila melanogaster flies with human Alzheimer's genes (F1); experiment: survival of Drosophila melanogaster with Alzheimer's disease; format: in vivo; details: 100 μM in the food
Source text: (§2) To investigate the effect of TGMs on the cognitive parameters and aging, another model of Alzheimer's disease in Drosophila melanogaster flies with genetic alterations corresponding to human Alzheimer's was used. The flies used were the first generation (F1) from the crossing of UAS-Aβ human-Tau 2N4R (stock 33771) flies with elav-GAL4^c155 (stock 8760) flies. This model which over-expresses the two proteins typical of Alzheimer's disease is complementary to the model described above and very convenient, as these animals have a life of approximately 1 month and it is possible to add the compounds to the food of the larvae to see the preventative effect thereof throughout their entire life. Also, it allows the effect on aging to be seen and on the life expectancy of these animals (survival over time).
(§3) In this sense, the flies with human Alzheimer's (F1) present a greater cognitive decline in comparison to the “Oregon” fly strain, which are the healthy controls. To evaluate the effect of the hydroxy-triglycerides of the invention, each one of the TGMs (100 μM) was added to the food consumed by these animals. It was possible to observe a positive effect of same in the geotaxis test of climbing (FIG. 7B and Table 11). In this test, the behavioural motor activity was investigated in 25 flies treated with vehicle or one of the TGMs. In this study, the flies were introduced in a glass cylinder with an opening closed with a sponge so air could enter. The flies were taken to the ground (bottom) of the pipe by giving it a sharp blow on a table and their behaviour was timed during 20 seconds. Once this time was over, the number of flies which had passed (crossed) a mark at 15 cm from the bottom was counted (geotaxis test). Usually, more than 90% of healthy young flies passed the line within 20 seconds. However, with aging or with Alzheimer's disease, the behavioural motor activity (percentage of flies which crossed the line) declined, compared to normal flies. In this context, the treatments with the hydroxy-triglycerides of the present invention avoided this cognitive decline associated to Alzheimer's, making the cognitive capacity of the diseased flies similar to that of the healthy flies. […] This positive effect on the cognitive parameters in flies was also shown by other TGMs (Table 11). In fact, in the control group with Alzheimer, no fly crossed the line as of 23 days of age. In this sense, the different hydroxy-triglycerides induced marked increases in the geotaxis test values, with increases in the cognitive values which reached up to 36 days, 50% more in the life of the flies with Alzheimer's (Table 11).

[17] = tested on: Drosophila melanogaster flies with human Alzheimer's genes (F1); experiment: geotaxis (climbing) test in Drosophila melanogaster with Alzheimer's disease; format: in vivo; details: 100 μM in the food; no fly passes the line
Source text: as §2, §3

SMILES	IC50 [1] [µM]	IC50 [2] [µM]	IC50 [3] [µM]	IC50 [4] [µM]	IC50 [5] [µM]	IC50 [6] [µM]	IC50 [7] [µM]	IC50 [8] [µM]	IC50 [9] [µM]	IC50 [10] [µM]	IC50 [11] [µM]	IC50 [12] [µM]	IC50 [13] [µM]	IC50 [14] [µM]	Δ SP, change in systolic blood pressure ([15]; p.o.) [mmHg]	Survival: age at which all the animals in the group died [16] [days]	Geotaxis: age at which the animals showed a geotaxis of nil [17] [days]	other results
CCCCCC=CCC=CCC=CCC=CCCC(O)C(=O)OCC(COC(=O)C(O)CCC=CCC=CCC=CCC=CCCCCC)OC(=O)C(O)CCC=CCC=CCC=CCC=CCCCCC (centres unmarked) [TGM4, 1,2,3-tri(2′-hydroxy-eicosa-5′,8′,11′,14′-tetraenoyl)glycerol]	18	11	21	0.9	27	151	6	43	36	72	17	22	10	32	−43	44	35	–
CCCCCC=CCC=CCCCCCCC(O)C(=O)OCC(COC(=O)C(O)CCCCCCC=CCC=CCCCCC)OC(=O)C(O)CCCCCCC=CCC=CCCCCC (centres unmarked) [TGM2, 1,2,3-tri(2′-hydroxy-octadec-9′,12′-dienoyl)glycerol]	42	132	31	2	74	67	147	77	57	31	56	25	54	114	−41	33	29	–
CCC=CCC=CCC=CCC=CCC=CCCC(O)C(=O)OCC(COC(=O)C(O)CCC=CCC=CCC=CCC=CCC=CCC)OC(=O)C(O)CCC=CCC=CCC=CCC=CCC=CCC (centres unmarked) [TGM5, 1,2,3-tri(2′-hydroxy-eicosa-5′,8′,11′,14′,17′-pentaenoyl)glycerol]	21	8	26	4	29	9	19	23	18	17	43	52	14	13	−40	31	26	–
CCCCCCCCC=CCCCCCCC(O)C(=O)OCC(COC(=O)C(O)CCCCCCC=CCCCCCCCC)OC(=O)C(O)CCCCCCC=CCCCCCCCC (centres unmarked) [TGM1, 1,2,3-tri(2′-hydroxy-octadec-9′-enoyl)glycerol]	240	93	282	29	129	32	184	144	128	211	257	87	292	243	−37	45	32	drops in systolic blood pressure ([15]; 14-day treatments with 600 mg/kg): up to 37 mmHg; drops in blood pressure ([15]; 9 days, 400 mg/kg every 12 h, p.o.): approximately 25 mmHg
CCCCCC=CCC=CCC=CCCCC(O)C(=O)OCC(COC(=O)C(O)CCCC=CCC=CCC=CCCCCC)OC(=O)C(O)CCCC=CCC=CCC=CCCCCC (centres unmarked) [TGM3G, 1,2,3-tri(2′-hydroxy-octadec-6′,9′,12′-trienoyl)glycerol]	94	59	46	39	154	174	75	123	187	81	28	187	–	42	−21	31	29	–
CCC=CCC=CCC=CCCCCCCC(O)C(=O)OCC(COC(=O)C(O)CCCCCCC=CCC=CCC=CCC)OC(=O)C(O)CCCCCCC=CCC=CCC=CCC (centres unmarked) [TGM3A, 1,2,3-tri(2′-hydroxy-octadec-9′,12′,15′-trienoyl)glycerol]	119	187	57	43	39	95	164	142	116	80	31	42	64	58	−28	40	36	–
CCCCCC(O)C(=O)OCC(COC(=O)C(O)CCCCC)OC(=O)C(O)CCCCC (centres unmarked) [TGM0, 1,2,3-tri(2′-hydroxyheptanoyl)glycerol]	–	–	–	–	–	–	–	–	–	–	–	–	–	–	−8	30	25	IC50 ([1]; Homo sapiens): 231 µM; IC50 ([2]; Homo sapiens, HT-29): 265 µM; IC50 ([3]; Homo sapiens, SF767): 278 µM; IC50 ([4]; Homo sapiens, A549): 121 µM; IC50 ([5]; Homo sapiens, SH-SY5Y): 253 µM; IC50 ([6]; Homo sapiens, Jurkat): 176 µM; IC50 ([7]; Homo sapiens, HeLa): 199 µM; IC50 ([8]; Homo sapiens, MIA PaCa-2): 283 µM; IC50 ([9]; Homo sapiens, MDA-MB-231): 254 µM; IC50 ([10]; Homo sapiens, BXPC-3): 297 µM; IC50 ([11]; Homo sapiens): 342 µM; IC50 ([12]; Homo sapiens, HepG2): 326 µM; IC50 ([13]; Homo sapiens): 327 µM
